The target in experiment [1] is T1, fructosyl amino acid oxidase from Phaeosphaeria nodorum (PnFPOX, SEQ ID NO: 1) variant N56A (Parastagonospora nodorum, UniProt Q0UIL6, N56A). Kind of experiment: Dehydrogenase activity kinetics (mPMS/DCIP), PnFPOX N56A mutant. The format is biochemical. As to conditions: purified enzyme, 25° C., pH 7.0. An excerpt: As used herein, “dehydrogenase activity” is an enzymatic activity (Vmax) of the fructosyl amino acid oxidase to catalyze oxidation of fructosyl amino acid to generate 2-keto-D-glucose and the corresponding amino acid while utilizing an electron mediator other than oxygen as an electron acceptor. The dehydrogenase activity may be assayed by measuring the amount of electrons transferred to the mediator using, for example, one of mPMS/DCIP (1-methoxy-5-methylphenazinium methylsulfate/2,6-dichloroindophenol), cPES (trifluoro-acetate-1-(3-carboxy-propoxy)-5-ethyl-phenanzinium, NA BM31—1144 (N,N-bis-(hydroxyethyl)-3-methoxynitrosoaniline hydrochloride, NA BM31—1008 (N,N-bis-hydroxyethyl-4-nitrosoaniline) and N—N-4-dimethyl-nitrosoaniline.
T1 sequence (Q0UIL6 whole entry N56A): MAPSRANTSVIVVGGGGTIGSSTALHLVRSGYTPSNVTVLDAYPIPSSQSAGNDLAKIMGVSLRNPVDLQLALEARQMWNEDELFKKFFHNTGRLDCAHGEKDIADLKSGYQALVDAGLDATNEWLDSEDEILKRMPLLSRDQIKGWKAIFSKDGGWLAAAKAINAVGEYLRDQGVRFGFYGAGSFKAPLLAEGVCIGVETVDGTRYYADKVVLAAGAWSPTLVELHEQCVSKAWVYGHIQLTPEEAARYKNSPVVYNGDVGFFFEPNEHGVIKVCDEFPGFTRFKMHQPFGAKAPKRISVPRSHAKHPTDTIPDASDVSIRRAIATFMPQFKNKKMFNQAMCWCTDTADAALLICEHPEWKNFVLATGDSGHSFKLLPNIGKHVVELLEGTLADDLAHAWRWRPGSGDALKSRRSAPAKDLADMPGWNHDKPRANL
As used herein in the context of the relative or quantitative activity, the dehydrogenase activity is specifically defined to be the mole amount of the substrate (fructosyl amino acid) oxidized per unit time measured by the amount of electrons transferred to the mediator at 25° C. in 10 mM PPB (pH 7.0), 0.6 mM DCIP, and 6 mM methoxy PMS (mPMS).
(§1) Escherichia coli BL21 (DE3) cells harboring expression vectors of N1-1 FAOD (SEQ ID NO: 2) mutants were grown in 150 ml of LB medium containing 50 μg/ml kanamycin at 37° C. After reaching an A660 value of 0.6, 0.3 mM IPTG was added and incubated at 25° C. for an additional 5 hours. The cells were collected by centrifugation and washed twice with 0.85% NaCl.aq. Then, the cells were resuspended in 10 mM Potassium Phosphate Buffer (PPB) pH 7.0 and lysed by ultrasonic homogenizer. The lysate was centrifuged at 10,000×g, 4° C. for 10 min, and the supernatant was centrifuged at 50,000 rpm, 4° C. for 60 min, then the supernatant was dialyzed against 10 mM PPB (pH 7.0). The oxidase activity was assayed at 25° C. in 10 mM PPB, pH 7.0, 1.5 mM TODB, 2 U/ml horseradish peroxidase (POD), and 1.5 mM 4-aminoantipyrine (4AA) in the presence of substrates (0.2, 0.5, 0.75, 1, 2, 5 mM f-^αVal […]). The formation of quinoneimine dye was measured spectrophotometrically at 546 nm. The dehydrogenase activity was assayed at 25° C. in 10 mM PPB (pH 7.0), 0.6 mM DCIP, and 6 mM methoxy PMS (mPMS) in the presence of substrates (0.2, 0.5, 1, 2, 5 mM f-^αVal or 5 mM f-^αVal-His).
Mutations were introduced using site-directed mutagenesis as in Example 1, and BL21 (DE3) cells were transformed with an expression vector containing wild-type or mutant PnFPOX (SEQ ID NO: 1). The cultured cells were resuspended in 10 mM PPB, pH 7.0, and lysed by sonication. The lysate was centrifuged at 10,000 g at 4° C. for 20 min, and the supernatant was centrifuged at 50,000 rpm at 4° C. for 60 min. The oxidase and dehydrogenase activities were measured as in Example 1. […]

Experiment [2] deals with T1, fructosyl amino acid oxidase from Phaeosphaeria nodorum (PnFPOX, SEQ ID NO: 1) variant N56A. Briefly: Oxidase activity kinetics (4AA/TODB/POD), PnFPOX N56A mutant. The format is biochemical. As to conditions: purified enzyme, 25° C., pH 7.0.
Text: As used herein “oxidase activity” is an enzymatic activity (Vmax) of the fructosyl amino acid oxidase to catalyze oxidation of fructosyl amino acid to generate 2-keto-D-glucose and the corresponding amino acid while utilizing oxygen as an electron acceptor. The oxidase activity may be assayed by measuring the amount of generated H2O2 by any methods known in the art, including by way of non-limiting example, reagents for H2O2 detection such as […] (4-aminoantipyrine/N,N-Bis(4-sulfobutyl)-3-methylaniline disodium salt/horseradish peroxidase) or by Pt electrode. As used herein in the context of the relative or quantitative activity, the oxidase activity is specifically defined to be the mole amount of the substrate (fructosyl amino acid) oxidized per unit time measured by the amount of generated H2O2 at 25° C. in 10 mM PPB, pH 7.0, 1.5 mM TODB, 2 U/ml horseradish peroxidase (POD), and 1.5 mM 4-aminoantipyrine (4AA). The formation of quinoneimine dye may be measured spectrophotometrically at 546 nm.
as §1
Mutations were introduced using site-directed mutagenesis as in Example 1, and BL21 (DE3) cells were transformed with an expression vector containing wild-type or mutant PnFPOX (SEQ ID NO: 1). The cultured cells were resuspended in 10 mM PPB, pH 7.0, and lysed by sonication. The lysate was centrifuged at 10,000 g at 4° C. for 20 min, and the supernatant was centrifuged at 50,000 rpm at 4° C. for 60 min. The oxidase and dehydrogenase activities were measured as in Example 1.
BL21 (DE3) transformed with pEPN (pET28a-PnFPOX)-N56A was grown aerobically at 37° C. in LB medium (2 l) containing 50 μg kanamycin ml^−1. […]

On to `CC(C)[C@H](NCC1(O)OC[C@@H](O)[C@@H](O)[C@@H]1O)C(=O)O` (some centres unmarked) [f-αVal, fructosyl valine], for which the Vmax in experiment [1] is reported as 95.1 U/mg; in experiment [2], 4.39 U/mg.

These data come from patent publication US8497083B2, “Fructosyl amino acid oxidase” (priority 2009, dated 2013).
